# Reference: ChEMBL document CHEMBL1153581, “Synthesis, antiviral and anticancer activity of some novel thioureas derived from N-(4-nitro-2-phenoxyphenyl)-methanesulfonamide” (Eur J Med Chem, 2009)
# Tested on: Vaccinia virus
# Assay: Antiviral activity against Vaccinia virus infected in human HEL cells assessed as protection against virus-induced cytopathogenicity
# Assay type: functional
# Settings: Orthopoxvirus vaccinia
row,Compound,MIC50
1,CCCNC(=S)Nc1ccc(NS(C)(=O)=O)c(Oc2ccccc2)c1,> 40 µg/mL
2,CNC(=S)Nc1ccc(NS(C)(=O)=O)c(Oc2ccccc2)c1,100 µg/mL
3,CCNC(=S)Nc1ccc(NS(C)(=O)=O)c(Oc2ccccc2)c1,40 µg/mL
4,CS(=O)(=O)Nc1ccc(NC(=S)NCCc2ccccc2)cc1Oc1ccccc1,> 8 µg/mL
5,CS(=O)(=O)Nc1ccc(NC(=S)NC2CCCCC2)cc1Oc1ccccc1,> 8 µg/mL
6,C=CCNC(=S)Nc1ccc(NS(C)(=O)=O)c(Oc2ccccc2)c1,> 40 µg/mL
7,CS(=O)(=O)Nc1ccc(NC(=S)NCCc2ccc(Cl)cc2)cc1Oc1ccccc1,> 100 µg/mL
8,CS(=O)(=O)Nc1ccc(NC(=S)NCc2ccccc2)cc1Oc1ccccc1,> 8 µg/mL
9,CS(=O)(=O)Nc1ccc(NC(=S)Nc2ccc([N+](=O)[O-])cc2)cc1Oc1ccccc1,8 µg/mL
10,Nc1nc2c(ncn2COCCO)c(=O)[nH]1 [ACYCLOVIR],> 250 µg/mL
11,O=c1[nH]c(=O)n([C@H]2C[C@H](O)[C@@H](CO)O2)cc1/C=C/Br [BRIVUDINE],2 µg/mL
12,Nc1nc2c(ncn2COC(CO)CO)c(=O)[nH]1 [GANCICLOVIR],100 µg/mL
13,NC(=O)c1ncn([C@@H]2O[C@H](CO)[C@@H](O)[C@H]2O)n1 [RIBAVIRIN],150 µg/mL
